Measurements published in patent US4591573A (priority 1983, dated 1986).
Where a name gives a salt, the structure may show the parent alone.

Assays:
[1] = system: antibody to L-hyoscyamine (antiserum); format: binding, New Zealand white rabbit
[2] = system: antibody of Virtanen radioimmunoassay; conditions: cited from earlier work
[3] = system: antibody of Wurzeburger radioimmunoassay; conditions: cited from earlier work
spinal cord = conditions: dog, in vivo; cited from earlier work
mice = conditions: mouse, in vivo; cited from earlier work
patients = conditions: human, in vivo; cited from earlier work
[4] = in vivo; cited from earlier work
[5] = system: peripheral parasympathetic nervous system; conditions: in vivo; cited from earlier work
children (flush) = conditions: in vivo, po; cited from earlier work
frogs = conditions: in vivo; cited from earlier work
[6] = in vivo; cited from earlier work; remark: listed apart in the source
human eyes = conditions: in vivo; cited from earlier work

For `CN1[C@@H]2CC[C@H]1C[C@@H](OC(=O)C(O)c1ccccc1)C2` (mixture of isomers) [Homatropine, dl-homatropine-HBr], the “recognition by / cross-reaction with the antibody” value (shortened to “recognition by / cross-reaction”) [1] was “recognized by the antibody”.
For `O=C(O)C(CO)c1ccccc1` (racemic) [Tropic Acid, dl-tropic acid], the “% Cross-reactivity” value [1] was 0% and the “recognition by / cross-reaction” value [1] was “did not cross-react with the antibody”.
In the case of `CN1[C@@H]2CC[C@H]1C[C@@H](OC(=O)C(CO)c1ccccc1)C2` (mixture of isomers) [atropine, D,L-hyoscyamine], the “% Cross-reactivity” value [1] was 30%, the “Specificity (cross-reactivity), Verma” value [1] was 37% and the “cross reaction / cross-reactivity with antibody of the invention” value [1] was “about 37%”. For the same molecule, the “recognition by / cross-reaction” value [1] was “recognized by the antibody”, the “Specificity (cross-reactivity), Virtanen” value [2] was 100% and the “Specificity (percentage of cross reactivity), Wurzeburger” value [3] was 100%. The “effect on excitability of the spinal cord” value (spinal cord) was “increase the excitability of the spinal cord”, the narcotization (mice) was “became narcotized” and the complications (patients) was “tachycardia, lethal arrhythmias and/or extension of the myocardial infarction”. The cycloplegic effect [4] was “exert a cycloplegic effect” and the effect on thermoregulation [4] was “hinders thermoregulation”.
In the case of `CN1[C@@H]2CC[C@H]1C[C@@H](OC(=O)[C@@H](CO)c1ccccc1)C2` [D-hyoscyamine], the “cross reaction / cross-reactivity with antibody of the invention” value [1] is given as “about 37%”, the “peripheral activity” value [5] is given as “peripherally inactive” and the “quantity required for flush, as multiple” value (children (flush)) is given as 20-40 times. For the same molecule, the “effect on spinal cord” value (frogs) was “an excitant to the spinal cord” and the “rate of destruction compared with L-form” value [6] was “destroyed more slowly than the L-form”.
For `CN1[C@@H]2CC[C@H]1C[C@@H](OC(=O)[C@H](CO)c1ccccc1)C2` [L-hyoscyamine sulphate], the “action on human eyes” value (human eyes) is listed as 0.25% solution, can replace a 1% solution of atropine sulphate.
For `CN1[C@@H]2CC[C@H]1C[C@@H](OC(=O)[C@H](CO)c1ccccc1)C2` [L-hyoscyamine], the “% Cross-reactivity” value [1] is listed as 100%, the “Specificity (cross-reactivity), Verma” value [1] is listed as 100% and the “Specificity (cross-reactivity), Virtanen” value [2] is listed as 100%. The “Specificity (percentage of cross reactivity), Wurzeburger” value [3] was 2.4%, the “peripheral activity” value [5] was “the most potent parasympathetic antispasmodic known” and the “quantity needed for flush” value (children (flush)) was “Less quantities of L-hyoscyamine were needed than atropine”. For the same molecule, the “effect on excitability of the spinal cord” value (spinal cord) was “no effect” and the narcotization (mice) was “not affected”.
In the case of `CN1[C@@H]2C[C@@H](OC(=O)[C@H](CO)c3ccccc3)C[C@H]1[C@@H]1O[C@@H]12` [Scopolamine, 1-scopolamine-HCl], the “% Cross-reactivity” value [1] was 0%.
In the case of `CN1[C@@H]2CC[C@H]1C[C@@H](O)C2` [Tropine, tropine], the “% Cross-reactivity” value [1] was 0% and the “recognition by / cross-reaction” value [1] was “did not cross-react with the antibody”.
For `CN1[C@@H]2CC[C@H]1C[C@@H](OC(=O)C(CO)c1ccccc1)C2` (stereo partly drawn) [atropine sulfate], the “serum level of 1-hyoscyamine after 3 hours” value (after 3 hours) was “approximately 50%” and the serum level course (in vivo) was “steady decline curve after 40 minutes”.
